Source: patent publication US8252832B2, “Kinesin inhibitors as cancer therapeutics” (Novartis AG, priority 2007, dated 2012)
Marks after values point to notes of the source that are not given here.

System: MV4; 11-luc disseminated AML disease
Test: MV4; 11-luc disseminated disease model, tumor response and survival
Format: in vivo, mouse
Protocol: Subcutaneous tumor efficacy studies were performed using outbred athymic nu/nu mice approximately 6-8 weeks old (Charles River Laboratories, Hollister, Calif.). The efficacy study in the disseminated disease model was performed using immunodeficient NOD-SCID female mice approximately 7-8 weeks old (Jackson Laboratories, Bar Harbor, Me.). […] Routine animal care and assurance of welfare were as described above.
Human MV4; 11 acute myelogenous leukemia cells were obtained from American Tissue Culture Collection (catalog #CRL-9591, Rockville, Md.) and tested to be free of Mycoplasma sp. and murine viruses in the IMPACT1 PCR assay panel (RADIL, University of Missouri, Columbia, Mo.). For the disseminated disease model, a stable pool of MV4; 11 cells expressing the luciferase gene was received from Fangxian Sun at the Genomics Institute of the Novartis Research Foundation in San Diego, Calif. (MV4; 11-luc). The MV4; 11 cells were grown in Iscove's modified Dulbecco's medium (Mediatech Inc., catalog #15-016-CV) supplemented with 10% fetal bovine serum (JRH Biosciences, catalog #12003-1000M), 4 mM L-glutamine and 5 ng/mL recombinant human […] (GM-CSF) (R&D Systems, catalog #215-GM). MV4; 11-luc were grown in the same media, but with the addition of 2 micrograms/mL of puromycin for selection of luciferase expression. These cells were grown as suspension cultures, maintained at 37° C. in a humidified atmosphere containing 5% carbon dioxide. Cells were cultured for fewer than 10 passages prior to use. Cells were harvested at approximately 2 million cells/mL, and centrifuged at ˜800×g for 5 minutes at 4° C. and then resuspended in a cold HBSS (Mediatech Inc., catalog #21-021-CV) at a concentration of 25 million cells/mL (containing 50% Matrigel™, BD Biosciences, catalog #354234) for implantation subcutaneously (injection volume of 0.2 mL) or at a concentration of 100 million cells/mL for implantation intravenously (i.v.) via the tail vein (injection volume of 0.1 mL). Mice were irradiated with 3 gray for 3 minutes one day prior to the i.v. cell implant.
The compound IIa (free base) and SB-715992 (free base) were formulated in 20% Captisol for a dose volume of 8 mL/kg. Doses were adjusted to each animal's body weight.
For the efficacy evaluation in the disseminated disease model, female NOD-SCID mice received whole-body irradiation at 3 gray the day before tail vein injection of 10 million cells in 0.1 mL HBSS. Forty mice were randomized and enrolled on study 28 days post-implant, with a mean photon count (dorsal view+ventral view) of approximately 5×10^7 photons/second, as determined by bioluminescence imaging. Approximately 10 minutes prior to imaging, mice were injected i.p. with 150 mg/kg luciferin (Xenogen Corporation, Alameda, Calif.), followed by anesthetization with isoflurane. Photon emission was measured using a charge coupled device camera in the IVIS imaging system (Xenogen Corporation). Briefly, a gray-scale image of the mice was captured, followed by an overlay of a bioluminescence map representing the spatial distribution of photons detected from cleaved luciferin in the cancer cells expressing luciferase. Signal intensity was quantified using a customized version of the IGOR Pro version 4.09A Software (WaveMetrics, Inc., Lake Oswego, Oreg.) called Living Image version 2.50.2 (Xenogen). The sum of all detected photon counts from the dorsal+ventral views was determined. Bioluminescence of cancer cells in the animals was measured by imaging on designated days until the first mice developed hind limb paralysis due to disease burden, the main end point for when to humanely euthanize mice. The day of euthanasia for each mouse was recorded and the remaining percentage of mice surviving was plotted over time (Kaplan-Meier survival analysis). P values were calculated using the log-rank test (GraphPad Prism 4.0 software) to assess differences between treated and control groups (p<0.05 was considered significant). […]

CC(C)(C)[C@H](c1nc(-c2cc(F)ccc2F)cn1Cc1ccccc1)N(CC[C@H](N)CF)C(=O)CO [Compound IIa]
Median Day of Survival (0.25 mg/kg, q4d × 3, i.v): 27 days
Δ Tumor bioluminescence, Day 12 (0.25 mg/kg, q4d × 3, i.v): 4.3 × 10^8 photons/sec
ΔT/ΔC, Day 12 (%) (0.25 mg/kg, q4d × 3, i.v): 46%
Median Day of Survival (0.25 mg/kg, q4d × 3, i.v, listed as COMPOUND IIa): 27** day
Median Day of Survival (0.5 mg/kg, q4d × 3, i.v): 31 days
Regression, Day 12 (%) (0.5 mg/kg, q4d × 3, i.v): 9* %
Δ Tumor bioluminescence, Day 12 (0.5 mg/kg, q4d × 3, i.v): −4.0 × 10^6 photons/sec
Median Day of Survival (0.5 mg/kg, q4d × 3, i.v, listed as COMPOUND IIa): 31** day
Median Day of Survival (1 mg/kg, q4d × 3, i.v.): 30 days
Regression, Day 12 (%) (1 mg/kg, q4d × 3, i.v.): 80* %
Median Day of Survival (1 mg/kg, q4d × 3, i.v, listed as COMPOUND IIa): 30** day
